From PubChem BioAssay (NCI)
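96-well plates; 48 h exposure; 5 concentrations. Endpoints by linear interpolation between flanking doses. Not reached: highest tested concentration assigned. TGI denotes the concentration required for complete inhibition of growth.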

Tests used:
Test in all cases: DTP human tumour cell line panel, 48 h
786-0 renal = system: 786-0 renal
A498 renal = system: A498 renal
A549 NSCLC = system: A549 NSCLC
ACHN renal = system: ACHN renal
BT-549 breast = system: BT-549 breast
CAKI-1 renal = system: CAKI-1 renal
CCRF-CEM leukemia = system: CCRF-CEM leukemia
COLO 205 colon = system: COLO 205 colon
DU-145 prostate = system: DU-145 prostate
EKVX NSCLC = system: EKVX NSCLC
HCT-116 colon = system: HCT-116 colon
HCT-15 colon = system: HCT-15 colon
HL-60(TB) leukemia = system: HL-60(TB) leukemia
HOP-62 NSCLC = system: HOP-62 NSCLC
HS 578T breast = system: HS 578T breast
HT29 colon = system: HT29 colon
IGROV1 ovarian = system: IGROV1 ovarian
K-562 leukemia = system: K-562 leukemia
KM12 colon = system: KM12 colon
LOX IMVI melanoma = system: LOX IMVI melanoma
M14 melanoma = system: M14 melanoma
MALME-3M melanoma = system: MALME-3M melanoma
MCF7 breast = system: MCF7 breast
MDA-MB-231 breast = system: MDA-MB-231 breast
MDA-MB-435 = system: MDA-MB-435
MDA-N = system: MDA-N
MOLT-4 leukemia = system: MOLT-4 leukemia
NCI-H226 lung = system: NCI-H226 lung
NCI-H23 lung = system: NCI-H23 lung
NCI-H460 lung = system: NCI-H460 lung
NCI-H522 lung = system: NCI-H522 lung
NCI/ADR-RES ovarian = system: NCI/ADR-RES ovarian
OVCAR-3 ovarian = system: OVCAR-3 ovarian
OVCAR-4 ovarian = system: OVCAR-4 ovarian
OVCAR-5 ovarian = system: OVCAR-5 ovarian
OVCAR-8 ovarian = system: OVCAR-8 ovarian
PC-3 prostate = system: PC-3 prostate
RPMI-8226 leukemia = system: RPMI-8226 leukemia
RXF 393 renal = system: RXF 393 renal
SF-268 CNS = system: SF-268 CNS
SF-295 CNS = system: SF-295 CNS
SK-MEL-2 melanoma = system: SK-MEL-2 melanoma
SK-MEL-28 melanoma = system: SK-MEL-28 melanoma
SK-MEL-5 melanoma = system: SK-MEL-5 melanoma
SN12C renal = system: SN12C renal
SNB-19 CNS = system: SNB-19 CNS
SW-620 colon = system: SW-620 colon
T-47D breast = system: T-47D breast
TK-10 renal = system: TK-10 renal
U251 CNS = system: U251 CNS
UACC-257 melanoma = system: UACC-257 melanoma
UACC-62 melanoma = system: UACC-62 melanoma
UO-31 renal = system: UO-31 renal
HCC-2998 colon = system: HCC-2998 colon
SK-OV-3 ovarian = system: SK-OV-3 ovarian
SNB-75 CNS = system: SNB-75 CNS
SR leukemia = system: SR leukemia

Measured: TGI

Cc1ccc2c(=O)c(C(=O)N(CCO)CCO)c[nH]c2n1
not listed: HCC-2998 colon | SK-OV-3 ovarian | SNB-75 CNS | SR leukemia
> 100 µM: all other assays above

CC1(C)O[C@@H](CP(c2cccc3ccccc23)c2cccc3ccccc23)[C@H](CP(c2cccc3ccccc23)c2cccc3ccccc23)O1
not listed: A498 renal | HL-60(TB) leukemia | HS 578T breast | MALME-3M melanoma | RPMI-8226 leukemia
> 100 µM: all other assays above
